According to patent US9388189B2, “Pyrrolotriazinone derivatives as PI3K inhibitors” (ALMIRALL, S.A., priority 2012, dated 2016):

Biological target: PI3Kδ (PI3Kd) (Homo sapiens (Human), UniProt O00329)
Assay: PI3K HTRF enzymatic inhibition assay (cell-free), delta isoform
Conditions: read-out: IC50 PI3Kd HTRF; recombinant PI3K delta, [ATP] 15 μM, [PIP2] 2 μM, 30 min preincubation
From the text: Compounds were screened for their ability to inhibit PI3Kα (PI3Ka), PI3Kβ (PI3Kb), PI3Kδ (PI3Kd) and PI3Kγ (PI3Kg) using a cell-free based PI3K HTRF™ assay (Millipore, ref. #33-017).
PI-3 Kinase HTRF kit (ref. #33-037) and the different PI3K recombinant isoforms (ref. #14-602, ref. #14-603, ref. #14-604, ref. #15-558 for Alpha, Beta, Delta and Gamma respectively) were purchased at Millipore (expressed in insect cells). ATP was purchased at Sigma Aldrich (ref. #A7699).
The compounds were pre-incubated with the enzyme for 30 min before starting of the catalytic reaction. [PIP2] was used at its Km. […] Time of assay and [Enzyme] were optimized to work in the linear range. Stop and Detection mixtures were used as specified in the Millipore PI-3 Kinase kit.
Reaction time and enzyme concentration in the assay will depend of each batch.
All experiments were analysed using Activity Base software from IDBS and the four-parameter log equation.

Chain of PI3Kδ (PI3Kd) (O00329 whole entry, canonical isoform): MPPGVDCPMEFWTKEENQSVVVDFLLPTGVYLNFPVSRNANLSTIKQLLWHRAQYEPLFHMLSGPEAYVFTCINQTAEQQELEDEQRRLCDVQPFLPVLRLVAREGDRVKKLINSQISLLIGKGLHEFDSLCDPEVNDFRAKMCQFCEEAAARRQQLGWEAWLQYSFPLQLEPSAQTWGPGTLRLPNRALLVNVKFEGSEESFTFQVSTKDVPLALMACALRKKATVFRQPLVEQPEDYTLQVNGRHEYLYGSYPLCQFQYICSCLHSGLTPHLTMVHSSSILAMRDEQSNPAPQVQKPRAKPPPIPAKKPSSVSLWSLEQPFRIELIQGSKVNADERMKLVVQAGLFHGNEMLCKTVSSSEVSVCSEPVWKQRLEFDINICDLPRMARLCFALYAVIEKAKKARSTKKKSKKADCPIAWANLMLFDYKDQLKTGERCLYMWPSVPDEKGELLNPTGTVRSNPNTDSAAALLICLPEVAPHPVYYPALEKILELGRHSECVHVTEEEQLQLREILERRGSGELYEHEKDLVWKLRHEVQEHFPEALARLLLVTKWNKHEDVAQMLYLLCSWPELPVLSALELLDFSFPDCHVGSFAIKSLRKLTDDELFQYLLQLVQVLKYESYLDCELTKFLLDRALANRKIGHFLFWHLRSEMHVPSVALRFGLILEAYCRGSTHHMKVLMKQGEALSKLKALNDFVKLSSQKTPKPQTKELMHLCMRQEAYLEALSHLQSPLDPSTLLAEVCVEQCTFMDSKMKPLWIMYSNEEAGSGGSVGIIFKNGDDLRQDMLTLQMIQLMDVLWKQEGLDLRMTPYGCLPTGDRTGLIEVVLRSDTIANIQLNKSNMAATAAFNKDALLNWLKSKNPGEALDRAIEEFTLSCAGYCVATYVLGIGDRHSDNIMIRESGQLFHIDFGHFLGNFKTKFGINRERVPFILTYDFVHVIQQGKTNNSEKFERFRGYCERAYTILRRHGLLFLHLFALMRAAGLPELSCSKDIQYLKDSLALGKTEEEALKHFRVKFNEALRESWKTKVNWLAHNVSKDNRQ
Chain of PI3Kδ (PI3Kd) (P27986 whole entry partner, canonical isoform): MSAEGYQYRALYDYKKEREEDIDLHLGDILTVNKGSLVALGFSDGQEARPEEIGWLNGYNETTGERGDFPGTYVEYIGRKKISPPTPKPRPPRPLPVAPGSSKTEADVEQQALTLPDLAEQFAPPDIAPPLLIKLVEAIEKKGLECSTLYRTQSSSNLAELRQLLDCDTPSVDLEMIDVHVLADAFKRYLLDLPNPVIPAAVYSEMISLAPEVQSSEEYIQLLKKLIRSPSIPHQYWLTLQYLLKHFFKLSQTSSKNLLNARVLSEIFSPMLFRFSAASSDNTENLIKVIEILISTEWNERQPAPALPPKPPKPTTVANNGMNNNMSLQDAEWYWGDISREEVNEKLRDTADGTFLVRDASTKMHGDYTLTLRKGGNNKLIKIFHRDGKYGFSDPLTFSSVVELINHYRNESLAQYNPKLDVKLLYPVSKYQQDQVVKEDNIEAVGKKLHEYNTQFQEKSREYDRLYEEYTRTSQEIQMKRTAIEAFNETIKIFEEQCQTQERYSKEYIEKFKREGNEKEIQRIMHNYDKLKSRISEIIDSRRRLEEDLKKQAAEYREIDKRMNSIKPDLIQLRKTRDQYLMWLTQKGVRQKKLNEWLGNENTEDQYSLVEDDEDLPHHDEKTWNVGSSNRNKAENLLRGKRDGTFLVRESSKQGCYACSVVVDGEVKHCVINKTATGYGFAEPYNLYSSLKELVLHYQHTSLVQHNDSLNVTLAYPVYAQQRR

| IC50 | Compound |
| --- | --- |
| 1 nM | Cc1ccn2nc([C@H](C)Nc3ncnc4[nH]cc(-c5cc(O)cc(NS(=O)(=O)CCN(C)C)c5)c34)n(-c3ccccc3)c(=O)c12 [Example 150, (S)-2-(Dimethylamino)-N-(3-hydroxy-5-(4-((1-(5-methyl-4-oxo-3-phenyl-3,4-dihydropyrrolo[2,1-f][1,2,4]triazin-2-yl)ethyl)amino)-7H-pyrrolo[2,3-d]pyrimidin-5-yl)phenyl)ethanesulfonamide] |
| 5 nM | Cc1ccn2nc([C@H](C)Nc3ncnc4[nH]cc(-c5cc(C(F)(F)F)nn5C)c34)n(-c3ccccc3)c(=O)c12 [Example 151, (S)-5-Methyl-2-(1-((5-(1-methyl-3-(trifluoromethyl)-1H-pyrazol-5-yl)-7H-pyrrolo[2,3-d]pyrimidin-4-yl)amino)ethyl)-3-phenylpyrrolo[2,1-f][1,2,4]triazin-4(3H)-one] |
| 100 nM | Cc1ccn2nc([C@H](C)Nc3ncnc(N)c3-c3ccc(N4CCN(C(=O)OC(C)(C)C)CC4)cc3)n(-c3ccccc3)c(=O)c12 [Example 152, (S)-tert-Butyl 4-(4-(4-amino-6-((1-(5-methyl-4-oxo-3-phenyl-3,4-dihydropyrrolo[2,1-f][1,2,4]triazin-2-yl)ethyl)amino)pyrimidin-5-yl)phenyl)piperazine-1-carboxylate] |
| 0.3 nM | Cc1ccn2nc([C@H](C)Nc3ncnc4[nH]cc(-c5ccn(CC(C)(C)CO)n5)c34)n(-c3ccccc3)c(=O)c12 [Example 155, (S)-2-(1-((5-(1-(3-Hydroxy-2,2-dimethylpropyl)-1H-pyrazol-3-yl)-7H-pyrrolo[2,3-d]pyrimidin-4-yl)amino)ethyl)-5-methyl-3-phenylpyrrolo[2,1-f][1,2,4]triazin-4(3H)-one] |
| 1 nM | Cc1ccn2nc([C@H](C)Nc3ncnc(N)c3-c3cc(O)cc(C(=O)N(C)C)c3)n(-c3ccccc3)c(=O)c12 [Example 156, (S)-3-(4-Amino-6-((1-(5-methyl-4-oxo-3-phenyl-3,4-dihydropyrrolo[2,1-f][1,2,4]triazin-2-yl)ethyl)amino)pyrimidin-5-yl)-5-hydroxy-N,N-dimethyl benzamide] |
| 0.2 nM | COc1ncc(-c2c(N)ncnc2N[C@@H](C)c2nn3ccc(C)c3c(=O)n2-c2ccccc2)cc1NS(=O)(=O)c1ccc(O)cc1 [Example 157, (S)—N-(5-(4-Amino-6-((1-(5-methyl-4-oxo-3-phenyl-3,4-dihydropyrrolo[2,1-f][1,2,4]triazin-2-yl)ethyl)amino)pyrimidin-5-yl)-2-methoxypyridin-3-yl)-4-hydroxybenzenesulfonamide] |
| 4 nM | Cc1ccn2nc([C@H](C)Nc3ncnc4[nH]cc(-c5ccn(Cc6ccccc6O)n5)c34)n(-c3ccccc3)c(=O)c12 [Example 159, (S)-2-(1-((5-(1-(2-Hydroxybenzyl)-1H-pyrazol-3-yl)-7H-pyrrolo[2,3-d]pyrimidin-4-yl)amino)ethyl)-5-methyl-3-phenylpyrrolo[2,1-f][1,2,4]triazin-4(3H)-one] |
| 132 nM | Cc1ccn2nc([C@H](C)Nc3ncnc(N)c3-c3ccc(N4CCNCC4)cc3)n(-c3ccccc3)c(=O)c12 [Example 162, (S)-2-(1-((6-Amino-5-(4-(piperazin-1-yl)phenyl)pyrimidin-4-yl)amino)ethyl)-5-methyl-3-phenylpyrrolo[2,1-f][1,2,4]triazin-4(3H)-one] |
| 0.2 nM | Cc1ccn2nc([C@H](C)Nc3ncnc4[nH]cc(-c5ccn(-c6cccc(O)c6)n5)c34)n(-c3ccccc3)c(=O)c12 [Example 163, (S)-2-(1-((5-(1-(3-Hydroxyphenyl)-1H-pyrazol-3-yl)-7H-pyrrolo[2,3-d]pyrimidin-4-yl)amino)ethyl)-5-methyl-3-phenylpyrrolo[2,1-f][1,2,4]triazin-4(3H)-one] |
| 5 nM | C[C@H](Nc1ncnc2[nH]cc(-c3cc(NS(C)(=O)=O)cc4[nH]ccc34)c12)c1nn2cccc2c(=O)n1-c1ccccc1 [Example 165, (S)—N-(4-(4-((1-(4-Oxo-3-phenyl-3,4-dihydropyrrolo[2,1-f][1,2,4]triazin-2-yl)ethyl)amino)-7H-pyrrolo[2,3-d]pyrimidin-5-yl)-1H-indol-6-yl)methanesulfonamide] |
| 2 nM | Cc1ccn2nc([C@H](C)Nc3ncnc(N)c3-c3cccc(C(=O)Nc4cccc(O)c4)c3)n(-c3ccccc3)c(=O)c12 [Example 168, (S)-3-(4-Amino-6-((1-(5-methyl-4-oxo-3-phenyl-3,4-dihydropyrrolo[2,1-f][1,2,4]triazin-2-yl)ethyl)amino)pyrimidin-5-yl)-N-(3-hydroxyphenyl)benzamide] |
| 3 nM | Cc1ccn2nc(CNc3ncnc(N)c3-c3cncc(C(F)F)c3)n(-c3ccccc3)c(=O)c12 [Example 169, 2-(((6-Amino-5-(5-(difluoromethyl)pyridin-3-yl)pyrimidin-4-yl)amino)methyl)-5-methyl-3-phenylpyrrolo[2,1-f][1,2,4]triazin-4(3H)-one] |
| 5 nM | Cc1ccn2nc([C@H](C)Nc3ncnc(N)c3-c3cc(O)c4ccn(S(=O)(=O)c5ccc(O)cc5F)c4c3)n(-c3ccccc3)c(=O)c12 [Example 171, (S)-2-(1-((6-Amino-5-(1-((2-fluoro-4-hydroxyphenyl)sulfonyl)-4-hydroxy-1H-indol-6-yl)pyrimidin-4-yl)amino)ethyl)-5-methyl-3-phenylpyrrolo[2,1-f][1,2,4]triazin-4(3H)-one] |
| 0.3 nM | Cc1ccn2nc([C@H](C)Nc3ncnc4[nH]cc(-c5cc(O)cc(NC(N)=O)c5)c34)n(-c3ccccc3)c(=O)c12 [Example 175, (S)-1-(3-Hydroxy-5-(4-((1-(5-methyl-4-oxo-3-phenyl-3,4-dihydropyrrolo[2,1-f][1,2,4]triazin-2-yl)ethyl)amino)-7H-pyrrolo[2,3-d]pyrimidin-5-yl)phenyl)urea] |
| 1 nM | C[C@H](Nc1ncnc2[nH]cc(-c3cc(NS(C)(=O)=O)cc(OS(C)(=O)=O)c3)c12)c1nn2cccc2c(=O)n1-c1ccccc1 [Example 176, (S)-3-(Methylsulfonamido)-5-(4-((1-(4-oxo-3-phenyl-3,4-dihydropyrrolo[2,1-f][1,2,4]triazin-2-yl)ethyl)amino)-7H-pyrrolo[2,3-d]pyrimidin-5-yl)phenyl methanesulfonate] |
| 5 nM | Cc1ccn2nc([C@H](C)Nc3ncnc4[nH]cc(-c5cc(NS(C)(=O)=O)cc6[nH]ncc56)c34)n(-c3ccccc3)c(=O)c12 [Example 181, (S)—N-(4-(4-((1-(5-Methyl-4-oxo-3-phenyl-3,4-dihydropyrrolo[2,1-f][1,2,4]triazin-2-yl)ethyl)amino)-7H-pyrrolo[2,3-d]pyrimidin-5-yl)-1H-indazol-6-yl)methanesulfonamide] |
| 0.7 nM | CCOc1ncc(-c2c(N)ncnc2N[C@@H](C)c2nn3ccc(C)c3c(=O)n2-c2ccccc2)cc1NS(=O)(=O)c1ccc(O)cc1 [Example 187, (S)—N-(5-(4-Amino-6-((1-(5-methyl-4-oxo-3-phenyl-3,4-dihydropyrrolo[2,1-f][1,2,4]triazin-2-yl)ethyl)amino)pyrimidin-5-yl)-2-ethoxypyridin-3-yl)-4-hydroxybenzenesulfonamide] |
| 0.4 nM | Cc1nnc(-c2cccc(-c3c[nH]c4ncnc(N[C@@H](C)c5nn6ccc(C)c6c(=O)n5-c5ccccc5)c34)c2)o1 [Example 188, (S)-5-Methyl-2-(1-((5-(3-(5-methyl-1,3,4-oxadiazol-2-yl)phenyl)-7H-pyrrolo[2,3-d]pyrimidin-4-yl)amino)ethyl)-3-phenylpyrrolo[2,1-f][1,2,4]triazin-4(3H)-one] |
| 0.2 nM | Cc1ccn2nc([C@H](C)Nc3ncnc(N)c3C(=O)Oc3cc(O)cc(NS(C)(=O)=O)c3)n(-c3ccccc3)c(=O)c12 [Example 195, (S)-3-Hydroxy-5-(methylsulfonamido)phenyl 4-amino-6-((1-(5-methyl-4-oxo-3-phenyl-3,4-dihydropyrrolo[2,1-f][1,2,4]triazin-2-yl)ethyl)amino)pyrimidine-5-carboxylate] |
| 3 nM | COc1ccc(S(=O)(=O)n2ccc3ccc(-c4c(N)ncnc4N[C@@H](C)c4nn5ccc(C)c5c(=O)n4-c4ccccc4)cc32)cc1 [Example 199, (S)-2-(1-((6-Amino-5-(1-((4-methoxyphenyl)sulfonyl)-1H-indol-6-yl)pyrimidin-4-yl)amino)ethyl)-5-methyl-3-phenylpyrrolo[2,1-f][1,2,4]triazin-4(3H)-one] |
| 0.2 nM | Cc1ccn2nc([C@H](C)Nc3ncnc4[nH]cc(-c5cc(NS(C)(=O)=O)c6cc[nH]c6c5)c34)n(-c3ccccc3)c(=O)c12 [Example 209, (S)—N-(6-(4-((1-(5-Methyl-4-oxo-3-phenyl-3,4-dihydropyrrolo[2,1-f][1,2,4]triazin-2-yl)ethyl)amino)-7H-pyrrolo[2,3-d]pyrimidin-5-yl)-1H-indol-4-yl)methanesulfonamide] |
| 5 nM | CCNc1ncc(-c2c(N)ncnc2N[C@@H](C)c2nn3ccc(C)c3c(=O)n2-c2ccccc2)cc1NS(=O)(=O)c1ccc(O)cc1 [Example 218, (S)—N-(5-(4-Amino-6-((1-(5-methyl-4-oxo-3-phenyl-3,4-dihydropyrrolo[2,1-f][1,2,4]triazin-2-yl)ethyl)amino)pyrimidin-5-yl)-2-(ethylamino)pyridin-3-yl)-4-hydroxybenzenesulfonamide] |
| 0.3 nM | Cc1ccn2nc([C@H](C)Nc3ncnc4[nH]cc(-c5cc(NS(C)(=O)=O)cc(C(=O)N(C)C)c5)c34)n(-c3ccccc3)c(=O)c12 [Example 219, (S)—N,N-dimethyl-3-(4-((1-(5-methyl-4-oxo-3-phenyl-3,4-dihydropyrrolo[2,1-f][1,2,4]triazin-2-yl)ethyl)amino)-7H-pyrrolo[2,3-d]pyrimidin-5-yl)-5-(methylsulfonamido)benzamide] |
| 0.4 nM | Cc1ccn2nc([C@H](C)Nc3ncnc4[nH]cc(-c5ccnc(N6CCC(N(C)C)CC6)c5)c34)n(-c3ccccc3)c(=O)c12 [Example 225, (S)-2-(1-((5-(2-(4-(Dimethylamino)piperidin-1-yl)pyridin-4-yl)-7H-pyrrolo[2,3-d]pyrimidin-4-yl)amino)ethyl)-5-methyl-3-phenylpyrrolo[2,1-f][1,2,4]triazin-4(3H)-one] |
